Measurements as given in patent publication US12606542B2, “[(1,5-diheteroaryl-1H-1,2,4-triazol-3-yl)oxy] acetic acid derivatives as safeners for the protection of useful plants and crop plants” (BAYER AKTIENGESELLSCHAFT, priority 2020, dated 2026).

System: summer wheat (TRZAS; cv. Triso)
Test: Reduction of damage by mesosulfuron-methyl on summer wheat (greenhouse safener test, post-emergence)
Assay type: in vivo
Design: key: 0: no reduction in damage (appearance corresponding to the herbicide control); 1: slight reduction in damage; 2: distinct reduction in damage; 3: significant reduction in damage; 4: complete reduction in damage (appearance corresponding to the untreated control)
Details: safener 100 g/ha as WP spray at early leaf stage (BBCH10-BBCH12), then mesosulfuron-methyl 40-60 g/ha; visual assessment 9-13 days after application; crop plant TRZAS
Description: 2.1 Relative Action of Selected Compounds of the Invention Using the Example of Reduction of Damage by Mesosulfuron-Methyl on Summer Wheat (TRZAS) The seeds of the crop plants to be treated are laid out in sandy loam in plastic pots (diameter ˜4 cm), covered with soil and grown in a greenhouse under good conditions for germination and growth. The trial plants were treated at the early leaf stage (BBCH10-BBCH12). In the course of this, the inventive compounds of the general formula (I) formulated in the form of wettable powders (WP) were sprayed onto the above-ground parts of the plants as an aqueous suspension with a water application rate corresponding to 800 l/ha with addition of wetting agent (e.g. 0.2% Genapol-LRO or 0.2% Mero) in the specified dose. This was followed by the application of the herbicide. For this purpose, mesosulfuron-methyl, formulated in the form of water-dispersible granules (WG), was sprayed onto the above-ground parts of the plants in the form of an aqueous dispersion with a water application rate corresponding to 800 l/ha with addition of wetting agent (e.g. 0.2% Genapol-LRO or 1 l/ha Biopower) in a dose of 40-60 g/ha. […] 9-13 days after application, the efficacy of the test compounds was assessed visually. […]

In the case of `COC(=O)COc1nc(-c2ccc(F)cn2)n(-c2ccc(Cl)cn2)n1` [Example I.31-10, Methyl {[1-(5-chloropyridin-2-yl)-5-(5-fluoropyridin-2-yl)-1H-1,2,4-triazol-3-yl]oxy}acetate], the “Efficacy of the safener (efficacy code)” value is reported as 2.
